From article PMC10907374, “G2019S selective LRRK2 kinase inhibitor abrogates mitochondrial DNA damage” (NPJ Parkinson's Disease, 2024)

Key:
Format in all cases: cell-based, human
[1] = test system: wild-type HEK293 cells; test: Mito DNADX mtDNA damage and mtDNA copy number in wild-type HEK293 cells; conditions: 10 nM-1 μM, 2 h
Experimental: Cells were plated at a density of 0.3 × 10^6 cells in a 6-well dish and treated at ~40–50% confluency. At the time of harvest, cells were collected and either protein collected or DNA extracted as described below.
Following this treatment, “Post-treatment recovery 0 h” samples were collected immediately, or vehicle or MLi-2-containing treatment medium was washed out and replaced with fresh medium and incubated for 2 additional hours and then collected as “Post-treatment recovery 2 h” samples. Isolation, quantitation, and mtDNA damage was performed as described below. […]
Cells were collected and the nuclei and mitochondria were isolated as previously described. […] DNA was eluted with EDTA-free buffer, and quality was assessed using a Spectradrop microvolume microplate (Molecular Devices). Double-stranded DNA was quantified using Quant-iT Picogreen dsDNA assay (Thermo Fisher) as previously described.
DNA damage in the mitochondrial genome was measured utilizing Mito DNADX, an assay that we recently developed and described, currently the most robust way of measuring damage in mtDNA[39],[82]. The Mito DNADX assay combines optimized polymerase chain reaction (PCR) parameters using a high-fidelity DNA polymerase and a fluorescent dye that binds to double-stranded DNA that permits the real-time quantification of DNA damage in distinct loci in a 96-well platform. […]

[2] = test system: wild-type HEK293 cells; test: Mitophagy (Mtphagy dye / Lyso dye live cell imaging) in wild-type HEK293 cells; conditions: 100 nM 2 h pre-treatment; for basal levels of mitophagy: Mitophagy dye intensity or co-localization; for FCCP-stimulated mitophagy: then 20 μM FCCP 3 h
Experimental: (§1) Thirty-five mm cell culture dishes (Cellvis, D35-20-1.5-N) were coated with poly-D-lysine (Sigma-Aldrich, P7280-5MG) for 5 min, washed with cell culture grade water (Sigma-Aldrich, W3500), and allowed to dry for at least 1 h before plating. LRRK2^G2019S/G2019S KI HEK293 and wild-type cells were passaged as described above and plated at 300,000 cells per well on poly-D-lysine-coated dishes. […] Following this, cells were washed three times with serum-free medium, and a working solution of Mtphagy dye (Dojindo, MD-01) was prepared in serum-free medium according to manufacturer protocols. Cultures were incubated with Mtphagy dye for 30 min, followed by three washes with serum-free medium. Complete medium was used to prepare a 20 µM FCCP (Abcam, ab120081) or DMSO control treatment solution, which was used to treat cells for 3 h. Following treatment, cells were then washed 3 times with serum-free medium, and a working solution of Lyso dye (Dojindo, MD-01) was prepared in serum-free medium and used to treat cells for 30 min. Complete medium lacking phenol red was prepared for use in confocal live cell imaging by combining phenol red-free DMEM/F-12 (Fisher Scientific, 21-041-025), FBS (VWR, 97068-085), and penicillin-streptomycin (VWR, 45000-652). Following Lyso dye treatment, cultures were washed three times with phenol red-free medium, followed by adding fresh phenol red-free medium to cell culture dishes. MitoBright LT Deep Red (Dojindo, MT12-12) was diluted in growth medium to prepare a 0.1 μmol/l solution and was used to treat cells for 15 min for total mitochondrial staining. Live cell imaging (5% CO2, 37 °C) was performed using a Zeiss LSM 880 Confocal Laser Scanning Microscope with Zen Black software. On average, ~70 cells were analyzed for each condition per each experimental replicate.
(§2) Following imaging, files were processed using Zen Blue software, and TIFF files of each channel were obtained for analysis. ImageJ was used to obtain readouts for image analysis. All images were converted to 8-bit format. For each respective image, the Lyso dye channel was used to create a mask delineating each lysosomal focus as a region of interest (ROI). Thresholding parameters were adjusted between biological replicates as required to ensure that the Lyso dye ROI encompassed all lysosome foci appropriately, and this was used to create a mask. This was then applied to the corresponding Mtphagy dye channel image, allowing collection of Mtphgy fluorescence intensity readouts for each lysosomal focus. Outliers were removed using Prism software (GraphPad) with the coefficient of removal set to 0.2%. Data was thresholded to exclude lysosomes not containing mitochondria by excluding fluorescence values with intensities equal to or below background levels. The number of ROIs remaining after thresholding was used to quantify lysosomes containing fluorescing mitochondria (mitolysosomes). Fluorescence intensity values for all mitolysosomes per condition per biological replicate were averaged to obtain a value of mitophagy fluorescence intensity per mitolysosome. For each replicate, all values of average mitolysosome fluorescence intensity were normalized to wild-type (vehicle treated) levels for the given replicate.

[3] = test system: LRRK2^G2019S/G2019S KI HEK293 cells; test: Mitophagy (Mtphagy dye / Lyso dye live cell imaging) in LRRK2 G2019S/G2019S KI HEK293 cells; conditions: 100 nM 2 h pre-treatment; for basal levels of mitophagy: Mitophagy dye intensity or co-localization; for FCCP-stimulated mitophagy defect: then 20 μM FCCP 3 h
Experimental: as §1, §2

Structure (SMILES)	mtDNA copy number [1]	basal levels of mitophagy [2]	FCCP-stimulated mitophagy [2]	basal levels of mitophagy [3]	FCCP-stimulated mitophagy defect [3]
CC1=C(C(=O)Nc2ccc3[nH]nc(-c4ccnc(N5CCOCC5)c4)c3c2)C(C)(C)n2nnnc2N1C [EB-42168]	no effect	did not impact	blocked	did not impact	failed to rescue
C[C@@H]1CN(c2cc(-c3n[nH]c4ccc(OC5(C)CC5)cc34)ncn2)C[C@H](C)O1 [MLi-2, reference compound]	did not change	did not impact	blocked	did not impact	failed to rescue
